Results as given in patent US4670469A, “Hydroxamic acid and pharmaceutical preparations containing the same” (VEB Arzneimittelwerk Dresden, priority 1983, dated 1987).
pEC50: −log10 of the molar value. Values joined by “and” are separate entries in the source; they are usually repeats but may differ in a detail not shown here. Identical values can stand only once. Values belong to the molecule of their own block, whether it stands above or below them.

Columns and labels:
[1] = tested on: carrageenin edema of rat paws; experiment: Inhibition of carrageenin edema of rat paws; format: in vivo; conditions: 200 mg/kg perorally, rats
Description: The inflammation-inhibiting activity of the compounds of Formula I is expressed, among others, by an inhibition of carrageenin edema in rat paws (see Example 9).
The carrageenin edema is employed in international literature as a model system for inflammation-triggering (prophlogistic) procedures, and offers the possibility of in vivo testing of compounds for inflammation-inhibiting (antiphlogistic) activity.
2(2'-naphthoxy)-acethydroxamic acid is supplied to 10 rats perorally in a dose of 200 mg/kg body weight with simultaneous delivery of 0.1 ml 1% carrageenin solution per animal. The extent of the paw edema is measured hourly after the application, and compared with the control group.

guinea pig lung strips = experiment: Activity on the basal tones of guinea pig lung strips; conditions: Cavia porcellus, basal tone, cumulative dose-activity curve
Text: The testing of the compounds for antiasthmatic activity follows on isolated lung strips and isolated tracheal rings from guinea pigs according to measuring methods known from the literature (supra) in modified form. The measurements follow in thermostatically controlled organ bath, isotonically using a contraction measuring arrangement with lift receiver, measuring coil, measuring amplifier (inductive measurement with the aid of a high frequency resonant circuit). The gasification follows with air. The suspension solution has the following composition: 39.46 g NaCl, 2.2 g KCl, 6.07 g Tris, 1.0 g CaCl2, 9.9 g glucose, 1.0 ml saturated MgCl2 -solution, 43 ml 1N HCl; pH 7.4.
(c) Activity on the basal tones of guinea pig lung strips.
Increasing concentrations of the active substance are added to the suspension medium. There occurs a dilatation, which is cumulatively measured. From the Dose-Activity-curves are provided the following parameters: […]

thrombocyte aggregation = experiment: Arachidonic acid-induced thrombocyte aggregation in thrombocyte-rich plasma; format: cell-based, humans; conditions: Homo sapiens; 0.8 mM arachidonic acid; concentration giving total restraint of aggregation
Text: Since with the new medicines the restraints of lipoxygenase has been identified as a molecular type of attack, also their influence on the thrombocyte-aggregation has been tested. The essential role of the lipoxygenase pathway for irreversibility of the thrombocyte aggregation is now known. (C. E. Dutilh et al. Prostaglandins and Medicine 6, 111 (1981)). The key role is attributed to the irreversibility of the thrombocyte aggregation in the pathogenesis of thrombotic illnesses. […] In the experiments, the thrombocyte aggregation was triggered either by means of arachidonic acid or by means of platelet activation factor (PAF-Acether).
The testing of the compounds for antithrombotic and thrombolytic activity follows in authentic cell systems of humans in vitro. Thrombocyte-rich plasma from the blood of healthy donors is obtained by centrifugation at 1,000×g. The measurement of the thrombocyte aggregation follows by means of an aggregometer based upon diffuse light scattering or light absorption of the produced cell aggregate. The thrombocyte-rich plasma is pre-incubated at 37° C. for 3 minutes with the active substance or substances; thereafter the thrombocyte aggregation is triggered through the addition of either 0.8 mM arachidonic acid or 1 μM platelet activation factor (PAF-acether). The preparations are then stirred with a velocity of 800 rpm. Indeed according to the employed active substance concentration there occurs either a strong delay or a complete inhibition of the thrombocyte aggregation.

[2] = tested on: histamine-induced bronchoconstriction in guinea pigs; experiment: Inhibition of histamine-induced bronchoconstriction in guinea pigs in vivo; conditions: individual animals; second histamine injection; listed as SHAM
[3] = tested on: histamine-induced bronchoconstriction in guinea pigs; experiment: as above
Description: Accordingly, this complete animal model is called upon for further experimental determination of the anti-asthmatic activity of compounds of Formula I. The following describes a representative experiment with salicylhydroxamic acid (SHAM) in […] male guinea pigs. SHAM is applied in a dose of 95 mg/kg body weight; this dose lies a power of ten below the determined values for acute toxicity (LD50 -value).
After urethane narcosis, a flexible catheter is introduced into the V. jugularis dext. of each animal. After a tracheotomy a tracheotubular needle is inserted for respiration. Then, after muscle relaxation with Pavulon, mechanical respiration follows in a Body-Plethysmograph (16 min^-1, I/E=1/1, pI =20 cmH2 O; Muller et al., 1976; Oddoy et al., 1982).
Over a tubular flesh needle at the outwardly led tracheotubular needle, the breath volume per draw of breath is measured by means of a pneumotachograph. The values are separately integrated and registered with a light recorder.
After 3 minutes calm breathing with registration of the parameter, three animals are dosed each with 2.5 ml SHAM-solution (isotonic, 37° C., 0.1M), i.v. (SHAM was dissolved in water directly before the test by heating, and the solution was cooled quickly in an 37° C. water bath.)
After 5 minutes further observation there follows the delivery of 5 μg/kg KM Histamine i.v. for providing a submaximal bronchospasm. After a further 5 minutes, 50 μg/kg KM Histamine are injected i.v. This leads according to experience to a fast, complete bronchial spasm ("silent chest"). After registration of the breath volume over a further 5 minutes, the test is completed.
In 3 animals serving as control group, with otherwise analogous procedure, instead of SHAM, 2.5 ml isotonic NaCl-solution are applied.
The calm- and the 5-minute values are mean values (in cm amplitude) from each 5 draws of breath.
The values after the Histamine injections represent the draw of breath having the smallest volume (3rd to 5th draw of breath after injection).

[4] = individual animals, draw of breath having the smallest volume, listed as SHAM
[5] = individual animals, listed as SHAM

- pEC50 (guinea pig lung strips; read-out: ED50 (dilatation)): 4.85
SMILES: O=C(COc1ccc2ccccc2c1)NO [2(2'-naphthoxy)-acethydroxamic acid]
- Restraint (%) of carrageenin edema ([1]; 1 h): 27.3%
- Restraint (%) of carrageenin edema ([1]; 2 h): 27.3%
- Restraint (%) of carrageenin edema ([1]; 3 h): 20.2%
- Restraint (%) of carrageenin edema ([1]; 4 h): 35.3%
- Restraint (%) of carrageenin edema ([1]; 5 h): 21.4%
- EC84 (guinea pig lung strips; read-out: ED84 (dilatation)): 27 µM
- IC100 (thrombocyte aggregation): 60 µM

SMILES: O=C(NO)c1ccccc1O [salicylhydroxamic acid]
- volume change, after 5 μg/kg Histamine [2]: -49% and -95.7% and -62%
- volume change, after 5 min ([3]; average value for n = 3, 5 min after first histamine injection): +7%
- volume change, after 5 min ([3]; average value for n = 3, 5 min after second histamine injection): -20%
- volume change, after 5 min ([3]; average value for n = 3, after SHAM i.v.): +7.7%
- volume change, after 5 μg/kg Histamine ([3]; average value for n = 3, first histamine injection): -18%
- volume change, after 5 μg/kg Histamine ([3]; average value for n = 3, second histamine injection): -68.9%
- breath volume after i.v. injection ([3]; before histamine): insignificant rise
- V-5 min after SHAM (breath volume change) ([3]; individual animals, 2.5 ml 0.1M SHAM i.v., cm amplitude): +0.1 cm and +0.2 cm and +0.45 cm
- volume change, after 5 min ([3]; individual animals, 5 min after first histamine injection, listed as SHAM): +5% and +10% and +7.2%
- volume change, after 5 min ([3]; individual animals, 5 min after second histamine injection, listed as SHAM): -04% and -22% and -35%
- V after 5 μg Hist. i.v. [3, 4]: -0.4 cm and -2.2 cm
- V after 50 μg Hist. i.v. [3, 4]: -2.4 cm and -4.4 cm and -1.6 cm
- volume change, after 5 μg/kg Histamine ([3]; individual animals, first histamine injection, listed as SHAM): -8% and -48% and 0%
- V-5 min thereafter (after 5 μg Hist.) [3, 5]: +0.26 cm and +0.48 cm and +0.19 cm
- V-5 min thereafter (after 50 μg Hist.) [3, 5]: -0.2 cm and -1.0 cm and -0.9 cm
- volume change, after 5 min ([3]; individual animals, percent of the starting draw volume, after SHAM i.v.): +2% and +4% and +17%
- bronchial spasm after histamine injections ([3]; pre-treated animals versus control group): smaller bronchial spasm than the animals of the control group
- spontaneous regression of histamine induced bronchial spasm ([3]; treated animals versus control group): more quickly and more extensively than in the control group
